According to ChEMBL document CHEMBL1201862, “PubChem BioAssay data set” (2004):
Calls of active or inactive are those of the source.

Columns and labels:
[1] = target: T1, Short transient receptor potential channel 4 (Mus musculus, UniProt Q9QUQ5); experiment: mouse TRPC4 channel activators, dose response, cell-based, HEK293 TRPC4/mu-opioid, Fluo-4 calcium (AID 434937); type: functional
T1 sequence (Q9QUQ5 whole entry): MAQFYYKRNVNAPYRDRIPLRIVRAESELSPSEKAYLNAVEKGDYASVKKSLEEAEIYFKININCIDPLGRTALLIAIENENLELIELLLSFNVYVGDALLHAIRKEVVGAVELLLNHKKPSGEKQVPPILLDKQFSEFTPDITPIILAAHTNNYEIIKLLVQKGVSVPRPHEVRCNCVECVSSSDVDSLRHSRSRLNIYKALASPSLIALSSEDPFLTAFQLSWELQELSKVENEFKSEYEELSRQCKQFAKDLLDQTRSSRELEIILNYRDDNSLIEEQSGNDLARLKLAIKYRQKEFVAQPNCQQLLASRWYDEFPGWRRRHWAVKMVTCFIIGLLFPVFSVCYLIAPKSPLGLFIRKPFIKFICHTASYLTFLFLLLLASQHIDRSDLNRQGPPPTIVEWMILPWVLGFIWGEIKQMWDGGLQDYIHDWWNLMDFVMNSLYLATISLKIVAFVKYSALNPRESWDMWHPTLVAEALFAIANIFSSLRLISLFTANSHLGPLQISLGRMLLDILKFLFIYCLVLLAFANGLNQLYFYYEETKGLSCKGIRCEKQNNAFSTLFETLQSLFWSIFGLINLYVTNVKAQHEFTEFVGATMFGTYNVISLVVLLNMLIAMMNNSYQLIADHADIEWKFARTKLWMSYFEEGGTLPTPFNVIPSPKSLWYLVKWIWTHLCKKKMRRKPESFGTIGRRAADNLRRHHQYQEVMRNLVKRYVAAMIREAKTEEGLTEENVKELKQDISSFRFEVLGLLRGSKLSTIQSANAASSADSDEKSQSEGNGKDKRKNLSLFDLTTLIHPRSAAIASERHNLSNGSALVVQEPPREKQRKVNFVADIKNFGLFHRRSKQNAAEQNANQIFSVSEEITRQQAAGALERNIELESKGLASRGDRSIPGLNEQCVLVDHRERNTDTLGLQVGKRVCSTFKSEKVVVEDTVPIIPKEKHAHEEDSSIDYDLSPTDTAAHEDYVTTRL

[2] = target: T2, Ubiquitin-conjugating enzyme E2 N (Homo sapiens, UniProt P61088); type: functional;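 also: Dose-response confirmation in a TR-FRET assay detecting UBC13-driven polyubiquitin chain formation, inhibition measured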
T2 sequence (P61088 whole entry): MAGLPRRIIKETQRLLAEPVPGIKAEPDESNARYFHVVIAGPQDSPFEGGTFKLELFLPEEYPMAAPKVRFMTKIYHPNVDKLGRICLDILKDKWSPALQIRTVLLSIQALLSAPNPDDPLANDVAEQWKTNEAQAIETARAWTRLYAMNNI

[3] = system: Streptococcus sp. 'group A'; experiment: growth inhibition of control SK(-) GAS strain, dose response, counter-screen for streptokinase expression inhibitor project, luminescence, kanamycin, BacTiterGlo, confirmation (AID 1900); type: functional, organism-based
Streptokinase A = target: T3, Streptokinase A (Streptococcus pyogenes serotype M1, UniProt P10520); experiment: S. pyogenes streptokinase expression inhibitors, potency, dose response, plasminogen activation absorbance, OD405 (AID 1914); type: functional, Streptococcus pyogenes M1 GAS;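 also: secreted streptokinase activity via plasminogen activation per viability signal from cell pellet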
T3 sequence (P10520 whole entry): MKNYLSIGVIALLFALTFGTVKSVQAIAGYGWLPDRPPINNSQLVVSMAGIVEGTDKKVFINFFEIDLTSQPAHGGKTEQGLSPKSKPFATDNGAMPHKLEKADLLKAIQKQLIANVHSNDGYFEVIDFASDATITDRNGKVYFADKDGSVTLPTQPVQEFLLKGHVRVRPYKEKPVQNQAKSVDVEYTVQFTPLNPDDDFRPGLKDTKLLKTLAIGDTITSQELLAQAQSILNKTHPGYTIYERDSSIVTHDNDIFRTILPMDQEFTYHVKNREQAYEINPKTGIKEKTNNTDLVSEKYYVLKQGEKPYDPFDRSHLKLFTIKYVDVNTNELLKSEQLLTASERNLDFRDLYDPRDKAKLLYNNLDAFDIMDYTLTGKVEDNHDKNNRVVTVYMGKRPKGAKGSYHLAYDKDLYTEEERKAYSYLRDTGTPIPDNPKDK

[4] = target: Induced myeloid leukemia cell differentiation protein Mcl-1 (Homo sapiens, UniProt Q07820); type: functional
Chain of Induced myeloid leukemia cell differentiation protein Mcl-1 (Q07820 whole entry): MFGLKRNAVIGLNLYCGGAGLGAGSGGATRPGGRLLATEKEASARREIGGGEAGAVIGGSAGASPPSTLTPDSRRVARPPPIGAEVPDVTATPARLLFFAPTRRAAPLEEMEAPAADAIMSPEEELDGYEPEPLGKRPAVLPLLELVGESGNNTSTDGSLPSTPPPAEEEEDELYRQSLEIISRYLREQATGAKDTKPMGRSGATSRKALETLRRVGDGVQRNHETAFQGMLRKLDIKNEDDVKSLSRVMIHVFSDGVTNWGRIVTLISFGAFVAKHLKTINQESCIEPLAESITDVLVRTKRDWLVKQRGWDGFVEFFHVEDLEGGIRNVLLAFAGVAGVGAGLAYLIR

Streptococcus = experiment: Group A Streptococcus viability loss, dose response, counter-screen for streptokinase expression inhibitor project, luminescence, BacTiterGlo (AID 1915); type: functional, organism-based;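 also: potency for reduction of bacterial viability or growth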
[5] = target: T4, Replicative DNA helicase DnaB (Mycobacterium tuberculosis, UniProt P9WMR3); experiment: DnaB intein splicing inhibitors, dose response, biochemical, cell-free fluorescence (AID 449749); type: functional
T4 sequence (P9WMR3 whole entry): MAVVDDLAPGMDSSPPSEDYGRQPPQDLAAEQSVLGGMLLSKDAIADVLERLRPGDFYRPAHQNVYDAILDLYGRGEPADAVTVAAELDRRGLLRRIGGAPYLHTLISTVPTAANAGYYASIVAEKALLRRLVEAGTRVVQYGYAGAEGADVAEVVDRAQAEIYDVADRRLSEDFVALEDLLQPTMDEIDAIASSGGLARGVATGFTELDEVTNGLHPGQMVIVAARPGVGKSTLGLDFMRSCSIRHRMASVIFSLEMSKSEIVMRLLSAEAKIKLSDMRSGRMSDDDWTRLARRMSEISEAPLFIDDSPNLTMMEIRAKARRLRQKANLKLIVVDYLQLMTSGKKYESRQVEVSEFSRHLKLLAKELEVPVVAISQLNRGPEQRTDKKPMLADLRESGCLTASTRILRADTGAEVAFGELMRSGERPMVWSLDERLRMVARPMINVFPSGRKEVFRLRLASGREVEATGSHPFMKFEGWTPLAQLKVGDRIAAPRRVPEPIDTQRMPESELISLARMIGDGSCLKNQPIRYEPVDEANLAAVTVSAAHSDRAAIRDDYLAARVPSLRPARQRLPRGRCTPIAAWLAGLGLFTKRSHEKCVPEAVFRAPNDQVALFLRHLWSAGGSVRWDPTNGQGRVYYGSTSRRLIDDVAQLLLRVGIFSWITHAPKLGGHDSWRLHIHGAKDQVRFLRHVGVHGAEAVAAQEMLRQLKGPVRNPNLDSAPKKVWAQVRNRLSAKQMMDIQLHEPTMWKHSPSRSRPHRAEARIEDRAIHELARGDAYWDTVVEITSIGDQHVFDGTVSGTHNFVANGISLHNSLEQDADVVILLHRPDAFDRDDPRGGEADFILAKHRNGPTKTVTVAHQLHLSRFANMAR

Protein RecA = target: T5, Protein RecA (Mycobacterium tuberculosis, UniProt P9WHJ3); experiment: Fluorescence Cell-Free Homogeneous Dose Retest to Identify Inhibitors of RecA-Intein Splicing Activity. [Related pubchem assays (depositor defined):AID2097, AID2223, AID489010, AID492950]; type: functional
T5 sequence (P9WHJ3 whole entry): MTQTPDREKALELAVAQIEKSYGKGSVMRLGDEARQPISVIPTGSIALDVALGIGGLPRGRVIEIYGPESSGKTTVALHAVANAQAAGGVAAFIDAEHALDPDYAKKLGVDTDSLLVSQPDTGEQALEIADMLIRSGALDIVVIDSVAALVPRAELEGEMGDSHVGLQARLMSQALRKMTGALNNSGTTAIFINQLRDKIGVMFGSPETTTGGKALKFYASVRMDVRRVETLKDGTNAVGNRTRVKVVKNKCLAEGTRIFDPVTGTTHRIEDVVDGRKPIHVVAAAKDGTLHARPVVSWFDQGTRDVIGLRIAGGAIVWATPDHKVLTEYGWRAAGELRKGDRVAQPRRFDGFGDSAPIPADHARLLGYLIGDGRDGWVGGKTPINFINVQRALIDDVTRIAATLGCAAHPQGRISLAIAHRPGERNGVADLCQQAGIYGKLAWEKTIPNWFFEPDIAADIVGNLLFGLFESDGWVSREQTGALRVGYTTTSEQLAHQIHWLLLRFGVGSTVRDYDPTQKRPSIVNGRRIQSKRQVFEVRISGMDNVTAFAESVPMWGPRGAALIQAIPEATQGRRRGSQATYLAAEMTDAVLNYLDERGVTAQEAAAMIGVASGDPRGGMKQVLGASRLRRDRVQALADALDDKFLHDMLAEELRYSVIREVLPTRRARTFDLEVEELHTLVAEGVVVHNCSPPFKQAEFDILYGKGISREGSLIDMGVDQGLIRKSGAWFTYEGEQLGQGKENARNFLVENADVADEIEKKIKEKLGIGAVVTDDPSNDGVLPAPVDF

[6] = target: T6, Voltage-gated N-type calcium channel alpha-1B subunit/Amyloid beta A4 precursor protein-binding family A member 1 (Homo sapiens, UniProt Q00975+Q02410); type: protein assay
T6 sequence (Q00975 whole entry): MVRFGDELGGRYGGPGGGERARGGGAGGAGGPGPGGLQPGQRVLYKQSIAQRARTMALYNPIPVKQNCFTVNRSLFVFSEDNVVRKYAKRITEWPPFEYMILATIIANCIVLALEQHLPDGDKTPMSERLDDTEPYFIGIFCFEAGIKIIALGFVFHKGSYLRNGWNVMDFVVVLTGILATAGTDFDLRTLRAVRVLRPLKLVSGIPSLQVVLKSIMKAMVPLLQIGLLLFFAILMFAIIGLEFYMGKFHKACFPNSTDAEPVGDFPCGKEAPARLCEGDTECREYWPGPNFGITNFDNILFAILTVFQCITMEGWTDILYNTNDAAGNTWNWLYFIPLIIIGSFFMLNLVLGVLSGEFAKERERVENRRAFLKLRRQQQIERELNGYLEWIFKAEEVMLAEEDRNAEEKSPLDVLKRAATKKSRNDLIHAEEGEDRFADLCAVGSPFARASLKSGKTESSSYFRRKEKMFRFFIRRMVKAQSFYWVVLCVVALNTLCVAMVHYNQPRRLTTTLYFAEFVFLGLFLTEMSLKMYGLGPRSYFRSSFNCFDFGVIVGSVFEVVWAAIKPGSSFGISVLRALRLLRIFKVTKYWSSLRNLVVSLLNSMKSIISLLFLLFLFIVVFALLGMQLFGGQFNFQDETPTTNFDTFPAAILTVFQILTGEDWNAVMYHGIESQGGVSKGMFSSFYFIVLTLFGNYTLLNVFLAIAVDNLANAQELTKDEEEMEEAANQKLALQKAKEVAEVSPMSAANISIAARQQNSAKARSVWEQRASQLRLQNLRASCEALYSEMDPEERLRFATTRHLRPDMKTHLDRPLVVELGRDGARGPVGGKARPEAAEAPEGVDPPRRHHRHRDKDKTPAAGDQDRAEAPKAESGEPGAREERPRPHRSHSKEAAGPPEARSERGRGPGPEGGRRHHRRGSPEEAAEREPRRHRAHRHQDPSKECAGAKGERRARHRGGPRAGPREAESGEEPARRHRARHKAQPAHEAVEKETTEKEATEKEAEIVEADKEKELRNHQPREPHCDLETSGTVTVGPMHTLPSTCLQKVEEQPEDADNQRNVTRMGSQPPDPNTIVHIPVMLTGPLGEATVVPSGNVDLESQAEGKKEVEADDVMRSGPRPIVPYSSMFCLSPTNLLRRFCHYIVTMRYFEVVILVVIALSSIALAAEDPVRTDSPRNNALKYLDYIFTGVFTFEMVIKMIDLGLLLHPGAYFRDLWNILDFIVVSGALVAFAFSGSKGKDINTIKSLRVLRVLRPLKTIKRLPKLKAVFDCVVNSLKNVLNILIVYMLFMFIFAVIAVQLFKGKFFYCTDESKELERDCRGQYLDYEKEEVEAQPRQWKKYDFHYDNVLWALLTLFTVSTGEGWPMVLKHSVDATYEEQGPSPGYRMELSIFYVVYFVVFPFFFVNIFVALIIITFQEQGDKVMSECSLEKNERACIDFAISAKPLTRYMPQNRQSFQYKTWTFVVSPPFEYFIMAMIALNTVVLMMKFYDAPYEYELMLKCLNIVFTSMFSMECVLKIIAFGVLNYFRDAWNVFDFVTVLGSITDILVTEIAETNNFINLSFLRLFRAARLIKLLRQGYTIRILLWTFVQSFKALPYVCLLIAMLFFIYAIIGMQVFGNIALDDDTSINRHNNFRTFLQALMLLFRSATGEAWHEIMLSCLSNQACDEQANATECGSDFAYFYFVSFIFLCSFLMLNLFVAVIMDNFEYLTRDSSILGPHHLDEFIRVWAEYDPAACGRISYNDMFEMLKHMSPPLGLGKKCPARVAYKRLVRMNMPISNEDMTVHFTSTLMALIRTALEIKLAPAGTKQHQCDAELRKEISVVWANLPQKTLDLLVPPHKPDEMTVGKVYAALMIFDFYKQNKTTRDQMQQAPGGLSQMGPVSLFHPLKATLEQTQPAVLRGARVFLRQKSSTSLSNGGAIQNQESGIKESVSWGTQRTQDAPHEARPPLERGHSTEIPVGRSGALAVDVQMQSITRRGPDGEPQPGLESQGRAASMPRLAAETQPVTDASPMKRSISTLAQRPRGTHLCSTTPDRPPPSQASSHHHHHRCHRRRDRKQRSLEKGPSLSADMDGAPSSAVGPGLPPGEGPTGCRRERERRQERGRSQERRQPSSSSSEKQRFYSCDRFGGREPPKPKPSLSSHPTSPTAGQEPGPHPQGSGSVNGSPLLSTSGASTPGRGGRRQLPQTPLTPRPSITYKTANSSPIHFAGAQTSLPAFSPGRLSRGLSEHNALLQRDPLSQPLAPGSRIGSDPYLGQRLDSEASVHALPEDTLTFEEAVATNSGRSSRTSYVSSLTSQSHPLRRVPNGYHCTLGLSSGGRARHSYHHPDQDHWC
T6 sequence (Q02410 whole entry): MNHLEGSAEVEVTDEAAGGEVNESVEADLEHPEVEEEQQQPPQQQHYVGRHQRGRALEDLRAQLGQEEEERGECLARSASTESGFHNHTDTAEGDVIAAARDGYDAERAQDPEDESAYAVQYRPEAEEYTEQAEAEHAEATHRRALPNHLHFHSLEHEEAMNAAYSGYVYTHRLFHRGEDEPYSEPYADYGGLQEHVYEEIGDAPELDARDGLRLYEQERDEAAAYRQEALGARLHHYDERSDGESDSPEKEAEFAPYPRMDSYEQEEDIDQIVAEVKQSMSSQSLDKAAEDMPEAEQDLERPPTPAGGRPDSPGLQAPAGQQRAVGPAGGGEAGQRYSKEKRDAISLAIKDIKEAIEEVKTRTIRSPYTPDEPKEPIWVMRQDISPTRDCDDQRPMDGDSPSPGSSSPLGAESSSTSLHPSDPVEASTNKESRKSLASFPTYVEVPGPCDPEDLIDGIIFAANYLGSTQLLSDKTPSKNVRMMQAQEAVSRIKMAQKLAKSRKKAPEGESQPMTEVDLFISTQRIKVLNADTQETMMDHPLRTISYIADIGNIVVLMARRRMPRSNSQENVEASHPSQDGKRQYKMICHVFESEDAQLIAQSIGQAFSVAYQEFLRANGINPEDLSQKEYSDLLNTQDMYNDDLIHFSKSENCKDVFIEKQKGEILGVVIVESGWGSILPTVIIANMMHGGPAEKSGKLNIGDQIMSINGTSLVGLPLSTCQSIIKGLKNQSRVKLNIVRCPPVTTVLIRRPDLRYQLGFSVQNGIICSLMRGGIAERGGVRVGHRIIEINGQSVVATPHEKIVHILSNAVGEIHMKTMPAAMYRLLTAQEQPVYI

[7] = target: T6, Voltage-gated N-type calcium channel alpha-1B subunit/Amyloid beta A4 precursor protein-binding family A member 1; type: protein assay; remark: listed apart in the source
[8] = target: Luciferin 4-monooxygenase (Photinus pyralis, UniProt P08659); experiment: firefly luciferase enzyme inhibitors, dose response, biochemical, luminescence (AID 1891)
Chain of Luciferin 4-monooxygenase (P08659 whole entry): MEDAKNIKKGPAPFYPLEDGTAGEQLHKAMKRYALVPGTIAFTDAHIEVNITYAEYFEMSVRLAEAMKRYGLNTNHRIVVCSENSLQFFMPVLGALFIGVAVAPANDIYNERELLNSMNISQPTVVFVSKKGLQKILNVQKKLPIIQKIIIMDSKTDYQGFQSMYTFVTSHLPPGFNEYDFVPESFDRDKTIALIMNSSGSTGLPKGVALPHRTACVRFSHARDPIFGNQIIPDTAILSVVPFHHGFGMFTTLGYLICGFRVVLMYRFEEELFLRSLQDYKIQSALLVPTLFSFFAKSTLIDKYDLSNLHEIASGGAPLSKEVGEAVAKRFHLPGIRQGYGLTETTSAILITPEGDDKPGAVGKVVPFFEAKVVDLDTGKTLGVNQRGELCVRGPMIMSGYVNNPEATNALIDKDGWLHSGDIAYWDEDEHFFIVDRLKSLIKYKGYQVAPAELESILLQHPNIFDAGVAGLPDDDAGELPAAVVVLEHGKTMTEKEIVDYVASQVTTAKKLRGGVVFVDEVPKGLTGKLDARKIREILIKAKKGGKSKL

[9] = Luminescence Cell-Based Dose Confirmation HTS to Identify Inhibitors of Platelet Dense Granule Release. [Related pubchem assays: 1663 (Primary HTS), 1678 (Summary of Project)]; type: functional
Large T antigen = Large T antigen (Simian virus 40, UniProt P03070); type: functional, Betapolyomavirus macacae;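 also: Confirmatory-stage PubChem screen for compounds that inhibit SV40 T antigen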
Chain of Large T antigen (P03070 whole entry): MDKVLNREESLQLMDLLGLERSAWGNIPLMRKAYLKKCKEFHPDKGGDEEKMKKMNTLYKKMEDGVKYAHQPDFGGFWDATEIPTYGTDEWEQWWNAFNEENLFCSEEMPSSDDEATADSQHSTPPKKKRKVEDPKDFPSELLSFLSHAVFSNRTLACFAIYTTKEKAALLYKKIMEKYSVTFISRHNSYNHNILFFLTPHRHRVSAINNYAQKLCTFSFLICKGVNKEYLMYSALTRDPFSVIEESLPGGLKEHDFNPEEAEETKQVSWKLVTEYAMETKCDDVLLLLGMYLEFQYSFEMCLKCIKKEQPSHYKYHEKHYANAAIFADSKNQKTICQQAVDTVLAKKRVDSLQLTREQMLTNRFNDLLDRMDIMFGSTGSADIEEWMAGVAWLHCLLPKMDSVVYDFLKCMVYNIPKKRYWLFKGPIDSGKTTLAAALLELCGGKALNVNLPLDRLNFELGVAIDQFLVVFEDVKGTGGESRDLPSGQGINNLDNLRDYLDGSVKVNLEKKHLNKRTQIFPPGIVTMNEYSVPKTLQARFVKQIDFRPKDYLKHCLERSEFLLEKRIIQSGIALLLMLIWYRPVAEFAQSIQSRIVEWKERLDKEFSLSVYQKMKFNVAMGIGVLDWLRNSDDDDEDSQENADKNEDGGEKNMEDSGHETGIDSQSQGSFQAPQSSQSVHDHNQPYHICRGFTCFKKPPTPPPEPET

[10] = growth suppression of PTEN-null colon cells, dose response, cell-based, HCT116 PTEN knockout (AID 1047); type: functional;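 also: HCT116 colon tumor cells with PTEN knocked out; cells exposed to compound for 60 hours before readout; potency for loss of cell viability measured by luminescence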
[11] = growth suppression of beta-catenin-knockout colon cells, dose response, cell-based, HCT116, human colon tumor (AID 1045); type: functional;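 also: HCT116 colon tumor cells with beta catenin knocked out; cells exposed to compound for 60 hours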
[12] = target: T7, RNA-binding protein pos-1 (Caenorhabditis elegans, UniProt G5EF15); experiment: inhibitors of POS-1/mex-3 RNA binding, dose response, biochemical, fluorescence polarization (AID 1964);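 also: purified POS-1 fused to maltose binding protein made in E. coli; potency of compounds blocking POS-1 binding to fluorescent RNA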
T7 sequence (G5EF15 whole entry): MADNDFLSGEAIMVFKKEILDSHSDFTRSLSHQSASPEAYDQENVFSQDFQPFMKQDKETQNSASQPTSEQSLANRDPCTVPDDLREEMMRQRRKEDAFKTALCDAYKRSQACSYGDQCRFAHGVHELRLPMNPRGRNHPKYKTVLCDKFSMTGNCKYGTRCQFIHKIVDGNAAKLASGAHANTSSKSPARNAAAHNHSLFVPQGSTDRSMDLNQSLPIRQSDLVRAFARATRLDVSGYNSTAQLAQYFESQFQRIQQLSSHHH

[13] = target: T8, Zinc finger protein mex-5 (Caenorhabditis elegans, UniProt Q9XUB2); experiment: MEX-5/TCR-2 RNA interaction inhibitors, dose response, biochemical, C. elegans, fluorescence polarization (AID 1960)
T8 sequence (Q9XUB2 whole entry): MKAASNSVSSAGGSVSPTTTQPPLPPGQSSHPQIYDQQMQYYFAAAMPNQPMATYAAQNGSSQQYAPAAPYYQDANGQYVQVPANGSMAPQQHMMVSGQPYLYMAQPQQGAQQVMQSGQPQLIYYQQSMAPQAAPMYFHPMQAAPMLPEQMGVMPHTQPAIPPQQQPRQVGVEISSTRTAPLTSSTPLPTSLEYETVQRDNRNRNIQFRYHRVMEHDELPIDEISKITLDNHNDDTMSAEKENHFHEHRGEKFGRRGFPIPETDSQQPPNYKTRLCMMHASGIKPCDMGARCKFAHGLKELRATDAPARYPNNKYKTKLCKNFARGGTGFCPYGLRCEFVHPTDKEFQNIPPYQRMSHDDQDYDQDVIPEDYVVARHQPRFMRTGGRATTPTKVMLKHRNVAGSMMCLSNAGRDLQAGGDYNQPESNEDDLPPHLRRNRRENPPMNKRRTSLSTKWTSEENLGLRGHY

Vero = experiment: cells; type: functional; details: Chlorocebus sabaeus

## O=C(Cc1cccc(F)c1F)NC1CCCN(Cc2ccc(Cl)cc2)C1 (stereo not drawn)
[1]
  EC50: 0.944 µM (active)

## Cn1c(=O)c2c(nc(CN3CCc4ccccc4C3)n2Cc2ccccc2F)n(C)c1=O
[1]
  EC50: 5.31 µM (active)

## CC(C)CC(C(=O)NC1CCCC1)N(Cc1ccc2c(c1)OCO2)C(=O)c1snc(C(N)=O)c1N (stereo not drawn)
[2]
  IC50: > 20 µM (inactive)

## CCOC(=O)C1=C(O)c2ccccc2C(=O)/C1=C\c1ccc(CC)cc1
[3]
  EC50: 13 µM (active)
Streptokinase A
  EC50: > 150 µM (not active)
[4]
  IC50: 7.19 µM (active)
Streptococcus
  EC50: 38.1 µM (active)
[5]
  AC50: 4.44 µM (active)
Protein RecA
  EC50: 8.86 µM (active)

## NC(=O)c1nsc(C(=O)N(c2cccc(F)c2)C(C(=O)NC2CCCC2)c2ccc(O)cc2)c1N (stereo not drawn)
[2]
  IC50: > 20 µM (inactive)

## O=C(CC(=O)c1c(F)cccc1Cl)c1ccccc1O
[1]
  EC50: 10.6 µM (active)

## CCN1C(=O)CC(c2ccccc2)N(C2CCCC2)c2nc(Nc3ccc(C(=O)NC4CCN(C)CC4)cc3OC)ncc21 (stereo not drawn)
[2]
  IC50: > 20 µM (inactive)

## CCN1C(=O)N/C(=C/c2ccc(C)o2)C1=O
[6]
  IC50: 3.29 µM (active)
[7]
  IC50: 22.6 µM (active)

## COc1cc(OC)cc(C(=O)NCCCN2CCN(CCCNC(=O)c3cc(OC)cc(OC)c3)CC2)c1
[8]
  EC50: > 112 µM (not active)
[9]
  EC50: > 112 µM (not active)
[1]
  EC50: 0.188 µM (active)

## COc1ccc(OC)c(CCNC(=O)Cn2sc3nc(C)cc(C)c3c2=O)c1
[6]
  IC50: 5.66 µM (active)
Large T antigen
  IC50: 22.1 µM (active)
[7]
  IC50: > 50 µM (inactive)
[10]
  EC50: 18.3 µM (active)
[11]
  EC50: 16.7 µM (active)

## O=C(CCS(=O)(=O)c1ccccc1)Nc1ccc(-c2nc3ccccc3s2)cc1
[6]
  IC50: 12.5 µM (active)
[7]
  IC50: > 50 µM (inactive)

## N#Cc1c(O)nsc1Nc1ccccc1Cl
[6]
  IC50: 4.76 µM (active)
[7]
  IC50: > 50 µM (inactive)

## COc1ccc(NC(=O)c2cc3ccc4c5ccccc5[nH]c4c3cc2O)cc1
[6]
  IC50: 9.55 µM (active)
[7]
  IC50: > 50 µM (inactive)

## C1=CC2c3ccccc3NC(c3ccncc3)C2C1 (stereo not drawn)
[12]
  EC50: > 300 µM (not active)
[13]
  EC50: 56.6 µM (inconclusive)
[4]
  IC50: 2.42 µM (active)

## N=C(NC(=O)c1ccccc1)N1CCN(C(c2ccccc2)c2ccccc2)CC1
Vero
  CC50: > 25 µM (active)

## Cc1ccc(NS(=O)(=O)c2ccc(C(=O)N3CC(C)CC(C)C3)cc2)cc1 (stereo not drawn)
[1]
  EC50: 4.22 µM (active)
